Experimental data taken from ChEMBL document CHEMBL1909046, “DrugMatrix in vitro pharmacology data”.

Experiments:
B2 bradykinin receptor = target: T1, B2 bradykinin receptor (Homo sapiens, UniProt P30411); type: cell membranes, Membrane; conditions: chem-1; further: in other assays of this panel Not Active means under 50% inhibition at 10 µM
T1 sequence (P30411 whole entry): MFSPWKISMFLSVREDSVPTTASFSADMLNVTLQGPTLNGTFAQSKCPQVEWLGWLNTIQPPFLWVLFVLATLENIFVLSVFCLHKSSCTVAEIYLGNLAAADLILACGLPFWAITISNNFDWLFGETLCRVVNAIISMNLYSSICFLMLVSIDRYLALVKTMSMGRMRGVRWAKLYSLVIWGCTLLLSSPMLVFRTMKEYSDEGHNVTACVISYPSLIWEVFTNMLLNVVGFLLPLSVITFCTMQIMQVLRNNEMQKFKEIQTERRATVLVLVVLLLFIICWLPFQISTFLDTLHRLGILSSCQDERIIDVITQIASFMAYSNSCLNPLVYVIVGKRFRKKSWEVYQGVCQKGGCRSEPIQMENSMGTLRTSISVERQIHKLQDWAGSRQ

[1] = target: 5-hydroxytryptamine receptor 4 (Cavia porcellus, UniProt O70528); type: cell membranes, Dunkin-Hartley, Striatum, Membrane; conditions: for Ki: read-out: Ki; on all read-outs here: in other assays of this panel Not Active means under 50% inhibition at 10 µM
[2] = target: T2, C-C chemokine receptor type 4 (Homo sapiens, UniProt P51679); type: cell membranes, Chem-1, Membrane; conditions: chem-1; further: in other assays of this panel Not Active means under 50% inhibition at 10 µM
T2 sequence (P51679 whole entry): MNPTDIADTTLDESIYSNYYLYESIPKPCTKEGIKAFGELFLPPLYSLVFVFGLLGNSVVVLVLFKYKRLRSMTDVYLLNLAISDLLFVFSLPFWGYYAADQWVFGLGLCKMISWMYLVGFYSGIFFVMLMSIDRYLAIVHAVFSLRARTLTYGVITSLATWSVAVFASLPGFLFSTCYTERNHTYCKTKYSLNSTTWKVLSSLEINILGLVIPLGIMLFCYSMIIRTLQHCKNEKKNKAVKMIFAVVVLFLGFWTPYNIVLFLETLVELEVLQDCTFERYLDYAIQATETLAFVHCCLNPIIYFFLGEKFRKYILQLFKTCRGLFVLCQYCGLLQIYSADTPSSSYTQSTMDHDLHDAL

[3] = DRUGMATRIX: Glutamate, Kainate radioligand binding (ligand: [3H] Kainic acid); type: cell membranes, Rattus norvegicus, Wistar, Brain, Membrane; conditions: Not Active = under 50% inhibition at 10 µM
[4] = DRUGMATRIX: Phorbol Ester radioligand binding (ligand: [3H] PDBu); type: cell membranes, Mus musculus, ICR, Brain, Membrane; conditions: Not Active = under 50% inhibition at 10 µM
[5] = target: Platelet-activating factor receptor (Homo sapiens, UniProt P25105); type: tissue-based; further: in other assays of this panel Not Active means under 50% inhibition at 10 µM
Cytochrome P450 2C19 = Cytochrome P450 2C19 (Homo sapiens, UniProt P33261); conditions: bti-tn-5b1-4; further: in other assays of this panel Not Active means under 50% inhibition at 10 µM
Cytochrome P450 3A4 = Cytochrome P450 3A4 (Homo sapiens, UniProt P08684); conditions: bti-tn-5b1-4; further: in other assays of this panel Not Active means under 50% inhibition at 10 µM
Cytochrome P450 3A4, sequence (P08684 whole entry): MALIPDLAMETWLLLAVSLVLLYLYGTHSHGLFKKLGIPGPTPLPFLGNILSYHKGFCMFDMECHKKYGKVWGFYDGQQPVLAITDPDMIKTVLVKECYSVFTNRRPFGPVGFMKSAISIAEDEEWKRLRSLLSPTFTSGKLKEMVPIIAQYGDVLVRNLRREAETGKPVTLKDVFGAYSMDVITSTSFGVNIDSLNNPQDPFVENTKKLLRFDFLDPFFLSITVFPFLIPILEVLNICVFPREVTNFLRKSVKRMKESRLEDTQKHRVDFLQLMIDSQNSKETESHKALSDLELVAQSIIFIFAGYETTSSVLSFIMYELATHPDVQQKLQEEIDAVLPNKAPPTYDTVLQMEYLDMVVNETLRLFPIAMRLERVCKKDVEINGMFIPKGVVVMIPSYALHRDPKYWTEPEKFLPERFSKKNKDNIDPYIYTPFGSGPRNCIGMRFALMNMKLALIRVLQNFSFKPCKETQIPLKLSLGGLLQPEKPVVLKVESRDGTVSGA

5-hydroxytryptamine receptor 4, sequence (O70528 whole entry): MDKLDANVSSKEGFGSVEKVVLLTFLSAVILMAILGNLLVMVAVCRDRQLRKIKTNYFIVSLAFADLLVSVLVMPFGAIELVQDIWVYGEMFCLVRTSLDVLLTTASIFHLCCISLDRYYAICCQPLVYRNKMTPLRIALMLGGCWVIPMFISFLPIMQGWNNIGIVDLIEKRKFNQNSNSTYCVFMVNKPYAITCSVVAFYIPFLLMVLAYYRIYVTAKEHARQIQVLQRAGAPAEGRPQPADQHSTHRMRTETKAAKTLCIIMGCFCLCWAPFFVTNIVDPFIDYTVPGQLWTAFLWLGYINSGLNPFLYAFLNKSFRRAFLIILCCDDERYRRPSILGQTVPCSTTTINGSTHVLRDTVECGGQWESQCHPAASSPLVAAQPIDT
Platelet-activating factor receptor, sequence (P25105 whole entry): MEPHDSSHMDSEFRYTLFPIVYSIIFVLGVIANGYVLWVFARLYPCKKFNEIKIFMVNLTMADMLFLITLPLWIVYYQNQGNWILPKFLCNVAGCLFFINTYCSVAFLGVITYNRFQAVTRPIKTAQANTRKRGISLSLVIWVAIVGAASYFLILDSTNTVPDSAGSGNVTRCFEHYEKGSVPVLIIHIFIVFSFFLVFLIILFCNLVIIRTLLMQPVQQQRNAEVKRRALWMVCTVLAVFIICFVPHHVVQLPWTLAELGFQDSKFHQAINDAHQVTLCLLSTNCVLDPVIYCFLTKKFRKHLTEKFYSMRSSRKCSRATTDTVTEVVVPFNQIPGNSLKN
Cytochrome P450 2C19, sequence (P33261 whole entry): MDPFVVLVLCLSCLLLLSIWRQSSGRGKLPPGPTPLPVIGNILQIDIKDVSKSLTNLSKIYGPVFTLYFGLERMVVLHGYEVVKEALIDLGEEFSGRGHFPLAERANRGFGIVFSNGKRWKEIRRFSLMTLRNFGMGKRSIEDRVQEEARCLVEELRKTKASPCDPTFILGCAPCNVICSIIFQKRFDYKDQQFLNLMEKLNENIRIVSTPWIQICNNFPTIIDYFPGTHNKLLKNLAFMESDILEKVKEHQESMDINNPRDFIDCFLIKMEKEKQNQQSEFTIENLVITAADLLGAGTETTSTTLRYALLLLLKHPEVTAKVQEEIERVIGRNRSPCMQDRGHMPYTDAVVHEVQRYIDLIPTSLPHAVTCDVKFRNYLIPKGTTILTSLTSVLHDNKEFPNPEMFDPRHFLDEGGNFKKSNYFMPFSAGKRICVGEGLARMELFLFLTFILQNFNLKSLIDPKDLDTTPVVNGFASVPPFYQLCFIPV

Row | SMILES | IC50 (B2 bradykinin receptor) | IC50 [1] | IC50 [2] | IC50 [3] | Ki [3] | IC50 [4] | Ki [4] | IC50 [5] | IC50 (Cytochrome P450 2C19) | Ki (Cytochrome P450 2C19) | IC50 (Cytochrome P450 3A4) | Ki (Cytochrome P450 3A4) | IC50 ([1]; read-out: IC50) [µM] | Ki [1] [µM]
1 | CC(C)(C)NCC(O)c1cc(Cl)c(N)c(Cl)c1 (stereo not given) [CLENBUTEROL] | Not Active | Not Active | Not Active | Not Active | Not Active | Not Active | Not Active | Not Active | Not Active | Not Active | Not Active | Not Active | – | –
2 | CC(O)CO (stereo not given) [PROPYLENE GLYCOL] | Not Active | Not Active | Not Active | Not Active | Not Active | Not Active | Not Active | Not Active | Not Active | Not Active | Not Active | Not Active | – | –
3 | CC1Cc2ccccc2N1NC(=O)c1ccc(Cl)c(S(N)(=O)=O)c1 (stereo not given) [INDAPAMIDE] | Not Active | Not Active | Not Active | Not Active | Not Active | Not Active | Not Active | Not Active | Not Active | Not Active | Not Active | Not Active | – | –
4 | COc1cc2nc(N3CCN(C(=O)C4COc5ccccc5O4)CC3)nc(N)c2cc1OC (stereo not given) [DOXAZOSIN] | Not Active | – | Not Active | Not Active | Not Active | Not Active | Not Active | Not Active | Not Active | Not Active | – | – | 0.764 | 0.127
5 | CCOc1ccc(NC(C)=O)cc1 [PHENACETIN] | Not Active | Not Active | Not Active | Not Active | Not Active | Not Active | Not Active | Not Active | – | – | Not Active | Not Active | – | –
6 | CN(C)CCCN1c2ccccc2Sc2ccc(Cl)cc21 [CHLORPROMAZINE] | Not Active | Not Active | Not Active | Not Active | Not Active | Not Active | Not Active | Not Active | – | – | – | – | – | –
7 | CC(C)[C@H]1C(=O)N2CCC[C@H]2[C@]2(O)O[C@](NC(=O)[C@@H]3C=C4c5cccc6[nH]cc(c56)C[C@H]4N(C)C3)(C(C)C)C(=O)N12 [ERGOCORNINE] | Not Active | Not Active | Not Active | Not Active | Not Active | Not Active | Not Active | Not Active | Not Active | Not Active | – | – | – | –
8 | CC(C)(Oc1ccc(Cl)cc1)C(=O)O [CLOFIBRIC ACID] | Not Active | Not Active | Not Active | Not Active | Not Active | Not Active | Not Active | Not Active | – | – | – | – | – | –
9 | CCC(C)n1ncn(-c2ccc(N3CCN(c4ccc(OCC5COC(Cn6cncn6)(c6ccc(Cl)cc6Cl)O5)cc4)CC3)cc2)c1=O (stereo not given) [ITRACONAZOLE] | Not Active | Not Active | Not Active | Not Active | Not Active | Not Active | Not Active | Not Active | Not Active | Not Active | – | – | – | –
10 | Cc1ccc(N(CC2=NCCN2)c2cccc(O)c2)cc1 [PHENTOLAMINE] | Not Active | Not Active | Not Active | Not Active | Not Active | Not Active | Not Active | Not Active | Not Active | Not Active | – | – | – | –
11 | CC(C)CN(C[C@@H](O)[C@H](Cc1ccccc1)NC(=O)O[C@H]1CCOC1)S(=O)(=O)c1ccc(N)cc1 | Not Active | Not Active | Not Active | Not Active | Not Active | Not Active | Not Active | Not Active | Not Active | Not Active | – | – | – | –
12 | CC1(C)S[C@@H]2[C@H](NC(=O)Cc3ccccc3)C(=O)N2[C@H]1C(=O)O [PENICILLIN G] | Not Active | Not Active | Not Active | Not Active | Not Active | Not Active | Not Active | Not Active | – | – | – | – | – | –
13 | C[C@H](CCC(=O)O)[C@H]1CC[C@H]2[C@@H]3[C@H](O)C[C@@H]4C[C@H](O)CC[C@]4(C)[C@H]3C[C@H](O)[C@]12C [CHOLIC ACID] | Not Active | Not Active | Not Active | Not Active | Not Active | Not Active | Not Active | Not Active | – | – | Not Active | Not Active | – | –
14 | N=C(N)NCCN1CCCCCCC1 [GUANETHIDINE] | Not Active | Not Active | Not Active | Not Active | Not Active | Not Active | Not Active | Not Active | – | – | – | – | – | –
15 | Nc1c(Br)cc(Br)cc1CN[C@H]1CC[C@H](O)CC1 [AMBROXOL] | Not Active | Not Active | Not Active | Not Active | Not Active | Not Active | Not Active | Not Active | – | – | – | – | – | –
16 | Cc1cc(C(C#N)c2ccc(Cl)cc2)c(Cl)cc1NC(=O)c1cc(I)cc(I)c1O (stereo not given) [CLOSANTEL] | Not Active | Not Active | Not Active | Not Active | Not Active | Not Active | Not Active | Not Active | Not Active | Not Active | – | – | – | –
17 | CC(NC(C)(C)C)C(=O)c1cccc(Cl)c1 (stereo not given) [BUPROPION] | Not Active | Not Active | Not Active | Not Active | Not Active | Not Active | Not Active | Not Active | – | – | Not Active | Not Active | – | –
18 | C[C@]12CC[C@@H]3c4ccc(O)cc4CC[C@H]3[C@@H]1CCC2=O [ESTRONE] | Not Active | Not Active | Not Active | Not Active | Not Active | Not Active | Not Active | Not Active | – | – | – | – | – | –
19 | CC(=O)O[C@@]12CO[C@@H]1C[C@H](O)[C@@]1(C)C(=O)[C@H](O)C3=C(C)[C@@H](OC(=O)[C@H](O)[C@@H](NC(=O)OC(C)(C)C)c4ccccc4)C[C@@](O)([C@@H](OC(=O)c4ccccc4)[C@H]21)C3(C)C.O.O.O [DOCETAXEL] | Not Active | Not Active | Not Active | Not Active | Not Active | Not Active | Not Active | Not Active | Not Active | Not Active | – | – | – | –
20 | Nc1ncn([C@@H]2O[C@H](CO)[C@@H](O)[C@H]2O)c(=O)n1 [AZACITIDINE] | Not Active | Not Active | Not Active | Not Active | Not Active | Not Active | Not Active | Not Active | – | – | Not Active | Not Active | – | –
21 | CN(C)CCCN1c2ccccc2Sc2ccccc21 [PROMAZINE] | Not Active | Not Active | Not Active | Not Active | Not Active | Not Active | Not Active | Not Active | – | – | – | – | – | –
22 | CN(C)c1nc(N(C)C)nc(N(C)C)n1 [ALTRETAMINE] | Not Active | Not Active | Not Active | Not Active | Not Active | Not Active | Not Active | Not Active | – | – | – | – | – | –
23 | CC(C)[C@@]1(NC(=O)[C@@H]2C[C@@H]3c4cccc5[nH]cc(c45)C[C@H]3N(C)C2)O[C@@]2(O)[C@@H]3CCCN3C(=O)[C@H](Cc3ccccc3)N2C1=O.CS(=O)(=O)O [DIHYDROERGOCRISTINE MESYLATE] | Not Active | – | Not Active | Not Active | Not Active | Not Active | Not Active | Not Active | – | – | – | – | 4.91 | 0.819
24 | CCn1cc(C(=O)O)c(=O)c2cc(F)c(N3CCNCC3)cc21 [NORFLOXACIN] | Not Active | Not Active | Not Active | Not Active | Not Active | Not Active | Not Active | Not Active | – | – | Not Active | Not Active | – | –
25 | COCCc1ccc(OCC(O)CNC(C)C)cc1 (stereo not given) [METOPROLOL] | Not Active | Not Active | Not Active | Not Active | Not Active | Not Active | Not Active | Not Active | – | – | Not Active | Not Active | – | –
